Values quoted from earlier work as cited in publication PMC10772668 (Clinical and Translational Science, 2023).

Conditions: cited from earlier work

Structure (SMILES): CN1C(=O)[C@@H](NC(=O)c2nnc(Cc3ccccc3)[nH]2)COc2ccccc21 [GSK2982772]
- Safety and tolerability (clinical development): safe and well‐tolerated
- Tolerability and ALT abnormalities (healthy participants): well‐tolerated with no reports of ALT abnormalities
